Source: ChEMBL document CHEMBL4130375, “Design, synthesis and biological evaluation of 4-amidobenzimidazole acridine derivatives as dual PARP and Topo inhibitors for cancer therapy” (Eur J Med Chem, 2017)
Activity calls are given as the source filed them. The calls are words filed in the database; no cut-off is given here.

What was measured:
[1] = system: MCF7; assay: Potency index, ratio of m-AMSA IC50 to compound IC50 for human MCF7 cells; assay type: functional
[2] = biological target: T1, DNA topoisomerase 1 (Homo sapiens) (UniProt P11387); assay: Inhibition of human topoisomerase-1 at 2 to 100 uM using supercoiled pBR322 DNA as substrate after 10 to 15 mins by ethidium bromide staining based electrophoresis method
T1 sequence (whole entry): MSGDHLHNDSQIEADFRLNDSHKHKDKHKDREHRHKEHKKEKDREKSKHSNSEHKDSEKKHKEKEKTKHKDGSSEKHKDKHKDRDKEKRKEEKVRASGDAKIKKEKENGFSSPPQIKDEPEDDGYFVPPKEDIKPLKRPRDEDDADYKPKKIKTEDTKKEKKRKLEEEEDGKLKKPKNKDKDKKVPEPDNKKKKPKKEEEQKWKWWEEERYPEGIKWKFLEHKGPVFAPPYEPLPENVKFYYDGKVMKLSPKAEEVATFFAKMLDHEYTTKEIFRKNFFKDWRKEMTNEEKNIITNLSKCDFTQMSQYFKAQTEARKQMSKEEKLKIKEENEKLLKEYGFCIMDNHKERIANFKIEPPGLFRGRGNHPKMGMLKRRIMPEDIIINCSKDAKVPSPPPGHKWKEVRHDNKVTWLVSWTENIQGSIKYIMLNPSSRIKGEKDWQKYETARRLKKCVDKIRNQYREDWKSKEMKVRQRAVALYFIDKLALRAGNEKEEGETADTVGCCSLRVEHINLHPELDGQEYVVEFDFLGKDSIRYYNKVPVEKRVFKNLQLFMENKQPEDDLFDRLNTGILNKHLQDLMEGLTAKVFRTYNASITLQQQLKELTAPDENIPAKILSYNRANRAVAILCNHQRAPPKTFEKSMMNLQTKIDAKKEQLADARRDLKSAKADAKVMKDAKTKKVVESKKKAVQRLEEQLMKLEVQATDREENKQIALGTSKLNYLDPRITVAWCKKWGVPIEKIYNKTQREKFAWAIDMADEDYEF

[3] = system: MCF7; assay: Cell cycle arrest in human MCF7 cells assessed as accumulation at S phase at 5 uM after 24 hrs by propidium iodide staining based flow cytometry (reference value: 59.72 +/- 2.98%); assay type: functional
[4] = biological target: Cytochrome P450 2D6 (Homo sapiens, UniProt P10635); assay: Inhibition of CYP2D6 in human liver microsomes preincubated for 10 mins followed by NADPH/substrate addition measured after 20 mins by LC-MS/MS analysis
[5] = biological target: DNA topoisomerase 2-alpha (Homo sapiens) (UniProt P11388); assay: Poison activity at topoisomerase-2 in human MCF7 cells assessed as enzyme-DNA complex formation by measuring decrease in topoisomerase-2 protein expression after 24 hrs by Western blot analysis; assay type: cell-based
[6] = system: MCF7; assay: Downregulation of CDK6 protein expression in human MCF7 cells up to 10 uM after 24 hrs by Western blot method; assay type: functional, cell-based
[7] = system: MCF7; assay: Upregulation of cleaved PARP protein expression in human MCF7 cells after 24 hrs by Western blot method; assay type: functional, cell-based
[8] = system: MCF7; assay: Induction of apoptosis in human MCF7 cells assessed as early apoptotic cells at 5 uM after 48 hrs by Annexin V-FITC/propidium iodide staining based flow cytometry (reference value: 0.108%); assay type: functional
[9] = system: MCF7; assay: Cell cycle arrest in human MCF7 cells assessed as accumulation at G2/M phase at 1 uM after 24 hrs by propidium iodide staining based flow cytometry (reference value: 22.61 +/- 1.55%); assay type: functional
[10] = biological target: Poly [ADP-ribose] polymerase 1 (Homo sapiens, UniProt P09874); assay: Inhibition of PARP1 (unknown origin) assessed as reduction in biotinylated poly(ADP-ribose) incorporation on to histone protein by ELISA based colorimetric assay
[11] = biological target: T2, Cytochrome P450 1A2 (Homo sapiens, UniProt P05177); assay: Inhibition of CYP1A2 in human liver microsomes preincubated for 10 mins followed by NADPH/substrate addition measured after 20 mins by LC-MS/MS analysis
T2 sequence (P05177 whole entry): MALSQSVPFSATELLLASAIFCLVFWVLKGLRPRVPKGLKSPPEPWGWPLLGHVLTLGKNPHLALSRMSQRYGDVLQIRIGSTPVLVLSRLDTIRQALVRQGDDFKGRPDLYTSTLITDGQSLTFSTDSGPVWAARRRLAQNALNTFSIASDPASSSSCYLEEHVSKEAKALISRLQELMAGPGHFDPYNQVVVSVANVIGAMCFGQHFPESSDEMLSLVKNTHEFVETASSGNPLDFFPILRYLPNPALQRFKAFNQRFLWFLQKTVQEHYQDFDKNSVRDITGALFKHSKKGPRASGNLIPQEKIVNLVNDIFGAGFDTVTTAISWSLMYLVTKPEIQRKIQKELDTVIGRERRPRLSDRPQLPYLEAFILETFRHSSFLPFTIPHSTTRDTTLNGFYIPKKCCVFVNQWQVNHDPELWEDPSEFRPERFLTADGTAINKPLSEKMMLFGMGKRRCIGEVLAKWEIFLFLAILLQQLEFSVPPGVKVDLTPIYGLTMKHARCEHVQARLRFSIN

[12] = system: MCF7; assay: Upregulation of cleaved caspase-9 protein expression in human MCF7 cells after 24 hrs by Western blot method; assay type: functional, cell-based
[13] = system: MCF7; assay: Induction of apoptosis in human MCF7 cells after 48 hrs by Annexin V-FITC/propidium iodide staining based flow cytometry; assay type: functional, cell-based
[14] = biological target: T1, DNA topoisomerase 1 (Homo sapiens); assay: Inhibition of topoisomerase-1 in human MCF7 cells assessed as enzyme-DNA cleavage complex formation by measuring decrease in topoisomerase-1 protein expression after 24 hrs by Western blot analysis; assay type: cell-based
[15] = system: MCF7; assay: Induction of apoptosis in human MCF7 cells assessed as late apoptotic cells at 5 uM after 48 hrs by Annexin V-FITC/propidium iodide staining based flow cytometry (reference value: 0%); assay type: functional
[16] = system: HCC1937; assay: Potency index, ratio of olaparib IC50 to compound IC50 for human HCC1937 cells harboring BRCA1 mutant; assay type: functional
[17] = system: MCF7; assay: Antitumor activity against human MCF7 cells xenografted in mouse assessed as tumor growth inhibition at 20 to 40 mg/kg/day, ip measured on day 30 post initial treatment; assay type: functional, organism-based
[18] = system: MCF7; assay: Downregulation of full length PARP protein expression in human MCF7 cells up to 10 uM after 24 hrs by Western blot method; assay type: functional, cell-based
[19] = system: MCF7; assay: Induction of DNA double strand breaks in human MCF7 cells assessed as increase in gammaH2AX level after 24 hrs by Western blot analysis; assay type: functional, cell-based
[20] = system: MCF7; assay: Downregulation of CDK2 protein expression in human MCF7 cells up to 10 uM after 24 hrs by Western blot method; assay type: functional, cell-based
[21] = system: MCF7; assay: Induction of apoptosis in human MCF7 cells assessed as live cells at 5 uM after 48 hrs by Annexin V-FITC/propidium iodide staining based flow cytometry (reference value: 99.9%); assay type: functional
[22] = biological target: Cytochrome P450 2C19 (Homo sapiens, UniProt P33261); assay: Inhibition of CYP2C19 in human liver microsomes preincubated for 10 mins followed by NADPH/substrate addition measured after 20 mins by LC-MS/MS analysis
Chain of Cytochrome P450 2C19 (P33261 whole entry): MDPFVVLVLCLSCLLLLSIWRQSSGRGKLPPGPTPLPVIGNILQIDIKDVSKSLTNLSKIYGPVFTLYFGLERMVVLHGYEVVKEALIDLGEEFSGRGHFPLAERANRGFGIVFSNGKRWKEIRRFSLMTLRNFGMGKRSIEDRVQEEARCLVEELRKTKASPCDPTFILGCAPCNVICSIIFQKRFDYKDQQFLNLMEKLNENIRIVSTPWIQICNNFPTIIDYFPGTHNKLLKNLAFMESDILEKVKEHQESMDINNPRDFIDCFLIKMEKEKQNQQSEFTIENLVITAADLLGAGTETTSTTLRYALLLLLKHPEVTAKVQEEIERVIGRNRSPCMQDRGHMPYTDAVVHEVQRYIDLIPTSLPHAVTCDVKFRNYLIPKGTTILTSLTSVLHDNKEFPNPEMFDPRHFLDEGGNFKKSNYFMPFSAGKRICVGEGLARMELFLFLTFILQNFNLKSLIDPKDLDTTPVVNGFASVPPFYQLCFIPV

Chain of DNA topoisomerase 2-alpha (Homo sapiens) (P11388 whole entry): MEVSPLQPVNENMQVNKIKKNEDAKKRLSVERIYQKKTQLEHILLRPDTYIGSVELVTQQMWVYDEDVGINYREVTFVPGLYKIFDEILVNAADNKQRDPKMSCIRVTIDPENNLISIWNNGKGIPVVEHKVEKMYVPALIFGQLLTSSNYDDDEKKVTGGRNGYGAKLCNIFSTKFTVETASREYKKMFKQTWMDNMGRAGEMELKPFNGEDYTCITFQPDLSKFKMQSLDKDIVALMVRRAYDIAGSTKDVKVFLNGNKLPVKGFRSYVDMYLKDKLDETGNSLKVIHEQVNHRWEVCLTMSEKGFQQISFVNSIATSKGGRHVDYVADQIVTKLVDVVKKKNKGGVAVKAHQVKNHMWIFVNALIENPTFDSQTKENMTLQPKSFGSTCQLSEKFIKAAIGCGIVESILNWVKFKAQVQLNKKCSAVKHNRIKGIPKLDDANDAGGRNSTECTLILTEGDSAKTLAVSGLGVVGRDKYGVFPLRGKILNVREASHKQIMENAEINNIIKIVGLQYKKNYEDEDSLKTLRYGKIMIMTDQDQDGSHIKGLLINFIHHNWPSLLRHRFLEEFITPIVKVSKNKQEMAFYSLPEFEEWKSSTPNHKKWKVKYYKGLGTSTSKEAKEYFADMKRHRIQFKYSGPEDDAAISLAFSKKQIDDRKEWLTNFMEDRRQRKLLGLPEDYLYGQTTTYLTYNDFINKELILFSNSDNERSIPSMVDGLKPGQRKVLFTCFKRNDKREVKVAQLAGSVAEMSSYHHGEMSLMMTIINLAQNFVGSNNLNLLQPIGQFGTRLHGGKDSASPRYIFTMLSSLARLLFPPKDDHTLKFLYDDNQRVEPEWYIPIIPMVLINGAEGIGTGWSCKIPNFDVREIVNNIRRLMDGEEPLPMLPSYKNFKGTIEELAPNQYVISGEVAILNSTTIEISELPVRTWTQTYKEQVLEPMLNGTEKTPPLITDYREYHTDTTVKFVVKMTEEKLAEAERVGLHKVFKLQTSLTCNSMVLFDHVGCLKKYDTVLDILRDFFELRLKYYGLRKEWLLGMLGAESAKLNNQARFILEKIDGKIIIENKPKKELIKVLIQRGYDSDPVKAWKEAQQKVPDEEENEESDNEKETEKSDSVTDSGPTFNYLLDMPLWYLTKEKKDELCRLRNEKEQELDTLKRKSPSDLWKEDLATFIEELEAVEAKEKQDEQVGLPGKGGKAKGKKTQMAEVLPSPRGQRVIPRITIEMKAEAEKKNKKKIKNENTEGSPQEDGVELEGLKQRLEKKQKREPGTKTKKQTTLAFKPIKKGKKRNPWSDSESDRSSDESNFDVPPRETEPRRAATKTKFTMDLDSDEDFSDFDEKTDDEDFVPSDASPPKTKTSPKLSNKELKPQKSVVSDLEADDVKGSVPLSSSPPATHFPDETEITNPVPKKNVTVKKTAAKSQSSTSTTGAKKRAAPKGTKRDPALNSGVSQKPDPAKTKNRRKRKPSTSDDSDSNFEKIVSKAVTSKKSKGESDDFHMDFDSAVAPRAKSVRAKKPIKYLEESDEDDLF
Chain of Cytochrome P450 2D6 (P10635 whole entry): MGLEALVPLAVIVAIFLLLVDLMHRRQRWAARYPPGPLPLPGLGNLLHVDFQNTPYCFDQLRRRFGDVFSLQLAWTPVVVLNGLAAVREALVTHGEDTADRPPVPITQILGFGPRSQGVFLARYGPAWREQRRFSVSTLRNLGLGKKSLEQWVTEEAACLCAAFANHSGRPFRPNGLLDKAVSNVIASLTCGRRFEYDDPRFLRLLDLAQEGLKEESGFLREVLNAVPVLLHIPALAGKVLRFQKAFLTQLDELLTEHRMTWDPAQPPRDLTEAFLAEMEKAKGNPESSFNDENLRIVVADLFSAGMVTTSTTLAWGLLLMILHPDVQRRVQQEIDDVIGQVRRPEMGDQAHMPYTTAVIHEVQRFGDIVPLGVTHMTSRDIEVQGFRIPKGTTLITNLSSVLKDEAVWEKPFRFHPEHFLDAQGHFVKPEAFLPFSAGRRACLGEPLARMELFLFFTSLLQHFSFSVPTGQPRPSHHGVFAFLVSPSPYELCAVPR
Chain of Poly [ADP-ribose] polymerase 1 (P09874 whole entry): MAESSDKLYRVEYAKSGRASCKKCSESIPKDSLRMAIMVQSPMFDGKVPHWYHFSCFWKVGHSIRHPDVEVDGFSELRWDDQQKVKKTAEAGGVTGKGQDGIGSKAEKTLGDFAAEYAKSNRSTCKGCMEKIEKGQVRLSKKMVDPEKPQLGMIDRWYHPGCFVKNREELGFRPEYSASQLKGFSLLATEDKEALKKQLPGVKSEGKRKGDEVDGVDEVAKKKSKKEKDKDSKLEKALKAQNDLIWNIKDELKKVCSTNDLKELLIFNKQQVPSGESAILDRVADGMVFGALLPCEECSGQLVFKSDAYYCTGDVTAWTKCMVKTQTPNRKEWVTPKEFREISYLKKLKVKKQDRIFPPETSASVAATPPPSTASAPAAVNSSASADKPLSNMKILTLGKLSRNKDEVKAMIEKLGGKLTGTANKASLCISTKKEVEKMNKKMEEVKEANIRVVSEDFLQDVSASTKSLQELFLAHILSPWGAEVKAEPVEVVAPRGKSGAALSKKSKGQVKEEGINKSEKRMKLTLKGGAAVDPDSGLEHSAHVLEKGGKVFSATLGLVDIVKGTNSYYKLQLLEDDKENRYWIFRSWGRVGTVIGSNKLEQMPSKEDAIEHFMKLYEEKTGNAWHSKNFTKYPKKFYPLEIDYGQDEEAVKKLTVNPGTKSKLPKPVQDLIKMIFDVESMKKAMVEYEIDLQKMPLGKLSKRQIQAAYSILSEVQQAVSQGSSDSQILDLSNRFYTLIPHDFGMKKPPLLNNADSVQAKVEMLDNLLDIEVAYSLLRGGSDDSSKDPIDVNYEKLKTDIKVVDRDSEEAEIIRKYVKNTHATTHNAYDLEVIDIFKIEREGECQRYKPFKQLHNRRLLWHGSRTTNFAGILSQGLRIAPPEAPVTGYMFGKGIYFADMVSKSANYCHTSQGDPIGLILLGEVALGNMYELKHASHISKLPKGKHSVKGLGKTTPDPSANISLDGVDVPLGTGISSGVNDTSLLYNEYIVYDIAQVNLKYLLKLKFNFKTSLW

inhibition [2]: Active | IC50 [4]: > 10 µM | IC50 [10]: 450 nM | IC50 [11]: > 10 µM | inhibition [14]: Dose-dependent effect | IC50 [22]: > 10 µM
SMILES: Cc1cccc2c(Nc3cccc(-c4nc5c(C(N)=O)cccc5[nH]4)c3)c3ccccc3nc12
Ratio IC50 [1]: 4 | Activity [3]: 42.32% | Activity [5]: Dose-dependent effect | Activity [6]: Active | Activity [7]: Dose-dependent effect | Activity [8]: 23.9% | Activity [9]: 21.76% | Activity [12]: Dose-dependent effect | Activity [13]: Dose-dependent effect | Activity [15]: 36.4% | Ratio IC50 [16]: 6 | TGI [17]: Active | Activity [18]: Active | Activity [19]: Dose-dependent effect | Activity [20]: Active | Activity [21]: 39.1%
